Source: ChEMBL document CHEMBL1201862, “PubChem BioAssay data set” (2004)
Calls of active or inactive are those of the source.

What was measured:
HEK293 [1] = assay: optical interference in Abeta FP readout, dose response, artefact control for IDE activator project, biochemical, fluorescence polarization (AID 588442); assay type: functional, cell-based; settings: Homo sapiens
HEK293 [2] = assay: membrane integrity loss in HEK cells – cell-based, fluorescence, cytotoxicity control for IDE activator project, dose response (AID 588440); assay type: functional; settings: Homo sapiens;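 also: cytotoxicity by LDH release measuring loss of membrane integrity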
Insulin-degrading enzyme [3] = target: T1, Insulin-degrading enzyme (Homo sapiens, UniProt P14735); assay: cellular IDE activation of Abeta substrate cleavage – fluorescence polarization, HEK cells, dose response (AID 588439); assay type: functional, cell-based
T1 sequence (P14735 whole entry): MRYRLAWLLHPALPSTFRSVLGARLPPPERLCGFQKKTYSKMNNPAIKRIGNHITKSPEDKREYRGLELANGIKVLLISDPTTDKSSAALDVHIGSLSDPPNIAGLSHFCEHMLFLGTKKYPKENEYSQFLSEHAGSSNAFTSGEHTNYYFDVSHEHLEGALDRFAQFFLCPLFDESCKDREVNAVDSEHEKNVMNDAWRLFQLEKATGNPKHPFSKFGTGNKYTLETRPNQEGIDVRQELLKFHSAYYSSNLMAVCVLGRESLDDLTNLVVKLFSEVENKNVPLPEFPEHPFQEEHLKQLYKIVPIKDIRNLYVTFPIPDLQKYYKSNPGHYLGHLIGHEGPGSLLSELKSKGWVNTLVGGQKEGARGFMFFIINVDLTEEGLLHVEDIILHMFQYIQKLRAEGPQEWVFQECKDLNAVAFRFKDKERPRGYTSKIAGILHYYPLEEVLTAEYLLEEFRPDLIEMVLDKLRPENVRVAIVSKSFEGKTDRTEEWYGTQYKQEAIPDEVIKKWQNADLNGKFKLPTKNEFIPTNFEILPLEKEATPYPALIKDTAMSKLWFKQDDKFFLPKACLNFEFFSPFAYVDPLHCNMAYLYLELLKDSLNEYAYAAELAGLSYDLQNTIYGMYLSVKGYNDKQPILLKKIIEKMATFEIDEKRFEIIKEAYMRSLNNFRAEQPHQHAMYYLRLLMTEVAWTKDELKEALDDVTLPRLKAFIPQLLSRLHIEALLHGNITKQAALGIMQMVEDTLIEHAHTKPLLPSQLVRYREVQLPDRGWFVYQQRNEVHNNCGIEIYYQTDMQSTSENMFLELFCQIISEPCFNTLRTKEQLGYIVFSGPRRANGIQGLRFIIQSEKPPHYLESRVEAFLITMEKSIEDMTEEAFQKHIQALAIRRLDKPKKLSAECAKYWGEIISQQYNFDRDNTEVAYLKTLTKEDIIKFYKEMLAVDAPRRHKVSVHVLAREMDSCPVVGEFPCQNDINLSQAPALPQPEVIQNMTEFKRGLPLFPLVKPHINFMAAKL

Insulin-degrading enzyme [4] = target: T1, Insulin-degrading enzyme; assay: recombinant IDE activation, cell-free – biochemical, fluorescence polarization, counter-screen for IDE activator project, dose response (AID 588681)
[5] = target: Serine/threonine-protein phosphatase PP1-alpha catalytic subunit (Homo sapiens, UniProt P62136); assay: inhibition of protein phosphatase 1 activity – biochemical, fluorescence, dose response (AID 2394)
[6] = target: T2, Apoptotic protease-activating factor 1 (Homo sapiens, UniProt O14727); assay type: functional
T2 sequence (O14727 whole entry): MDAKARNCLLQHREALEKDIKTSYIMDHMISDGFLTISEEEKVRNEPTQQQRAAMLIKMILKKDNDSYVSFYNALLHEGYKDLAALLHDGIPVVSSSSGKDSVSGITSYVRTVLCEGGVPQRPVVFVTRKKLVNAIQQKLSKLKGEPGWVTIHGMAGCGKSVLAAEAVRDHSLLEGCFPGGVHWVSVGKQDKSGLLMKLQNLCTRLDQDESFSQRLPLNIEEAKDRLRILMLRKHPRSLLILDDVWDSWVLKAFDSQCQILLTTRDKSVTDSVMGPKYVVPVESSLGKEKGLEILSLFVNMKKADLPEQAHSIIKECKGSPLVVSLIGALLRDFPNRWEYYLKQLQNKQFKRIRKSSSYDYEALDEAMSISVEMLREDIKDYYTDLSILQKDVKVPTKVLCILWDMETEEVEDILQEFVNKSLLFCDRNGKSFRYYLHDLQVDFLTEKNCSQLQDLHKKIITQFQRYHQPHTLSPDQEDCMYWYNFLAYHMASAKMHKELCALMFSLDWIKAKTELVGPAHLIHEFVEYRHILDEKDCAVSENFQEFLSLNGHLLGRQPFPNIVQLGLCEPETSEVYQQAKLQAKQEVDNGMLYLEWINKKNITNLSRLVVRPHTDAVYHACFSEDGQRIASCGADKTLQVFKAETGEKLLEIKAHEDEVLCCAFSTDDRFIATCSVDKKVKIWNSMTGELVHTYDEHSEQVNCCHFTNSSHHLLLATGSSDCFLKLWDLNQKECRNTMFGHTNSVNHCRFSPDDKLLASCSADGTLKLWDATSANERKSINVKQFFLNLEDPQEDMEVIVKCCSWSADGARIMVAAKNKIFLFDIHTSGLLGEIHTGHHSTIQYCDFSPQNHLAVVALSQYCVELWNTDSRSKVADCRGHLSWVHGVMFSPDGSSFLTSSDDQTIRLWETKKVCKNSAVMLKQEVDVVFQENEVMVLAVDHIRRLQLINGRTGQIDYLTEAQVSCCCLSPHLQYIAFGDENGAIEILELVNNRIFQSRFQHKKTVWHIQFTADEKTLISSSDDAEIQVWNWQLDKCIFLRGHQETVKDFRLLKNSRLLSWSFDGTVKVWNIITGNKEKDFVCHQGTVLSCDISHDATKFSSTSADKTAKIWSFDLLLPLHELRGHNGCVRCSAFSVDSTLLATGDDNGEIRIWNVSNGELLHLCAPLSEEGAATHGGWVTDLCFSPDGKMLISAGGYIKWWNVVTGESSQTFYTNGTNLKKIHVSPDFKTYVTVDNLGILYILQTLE

Caspase-6 = target: T3, Caspase-6 (Homo sapiens, UniProt P55212); assay: inhibition of CASP6 peptide cleavage – biochemical, VEID-R110 fluorescence, cherry-pick, dose response (AID 720632)
T3 sequence (P55212 whole entry): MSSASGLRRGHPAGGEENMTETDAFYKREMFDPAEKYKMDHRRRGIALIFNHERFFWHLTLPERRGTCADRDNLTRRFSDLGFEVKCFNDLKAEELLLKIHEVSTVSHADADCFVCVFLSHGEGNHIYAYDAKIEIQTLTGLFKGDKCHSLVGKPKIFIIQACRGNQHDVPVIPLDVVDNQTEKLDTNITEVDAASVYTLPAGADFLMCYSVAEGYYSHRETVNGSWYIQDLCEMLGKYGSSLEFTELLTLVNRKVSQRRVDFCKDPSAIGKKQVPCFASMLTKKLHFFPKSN

[7] = target: Serine/threonine-protein phosphatase (Homo sapiens, UniProt Q9BPW0); assay: inhibition of protein phosphatase 5 activity – biochemical, fluorescence, dose response (AID 2395)
[8] = target: T4, Sentrin-specific protease 8 (Homo sapiens, UniProt Q96LD8); assay: inhibition of human SENP8 cleavage activity – biochemical, luminescence, SAR follow-up (AID 504501); assay type: functional
T4 sequence (Q96LD8 whole entry): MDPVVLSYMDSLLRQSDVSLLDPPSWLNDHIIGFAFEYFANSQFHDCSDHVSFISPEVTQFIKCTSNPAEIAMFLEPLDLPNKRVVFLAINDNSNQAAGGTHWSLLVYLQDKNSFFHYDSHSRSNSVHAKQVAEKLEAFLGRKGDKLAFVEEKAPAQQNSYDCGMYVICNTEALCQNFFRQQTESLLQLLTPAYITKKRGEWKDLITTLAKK

[9] = target: T5, Sentrin-specific protease 7 (Homo sapiens, UniProt Q9BQF6); assay: inhibition of human SENP7 cleavage activity – biochemical, luminescence, SAR follow-up (AID 504497); assay type: functional
T5 sequence (Q9BQF6 whole entry): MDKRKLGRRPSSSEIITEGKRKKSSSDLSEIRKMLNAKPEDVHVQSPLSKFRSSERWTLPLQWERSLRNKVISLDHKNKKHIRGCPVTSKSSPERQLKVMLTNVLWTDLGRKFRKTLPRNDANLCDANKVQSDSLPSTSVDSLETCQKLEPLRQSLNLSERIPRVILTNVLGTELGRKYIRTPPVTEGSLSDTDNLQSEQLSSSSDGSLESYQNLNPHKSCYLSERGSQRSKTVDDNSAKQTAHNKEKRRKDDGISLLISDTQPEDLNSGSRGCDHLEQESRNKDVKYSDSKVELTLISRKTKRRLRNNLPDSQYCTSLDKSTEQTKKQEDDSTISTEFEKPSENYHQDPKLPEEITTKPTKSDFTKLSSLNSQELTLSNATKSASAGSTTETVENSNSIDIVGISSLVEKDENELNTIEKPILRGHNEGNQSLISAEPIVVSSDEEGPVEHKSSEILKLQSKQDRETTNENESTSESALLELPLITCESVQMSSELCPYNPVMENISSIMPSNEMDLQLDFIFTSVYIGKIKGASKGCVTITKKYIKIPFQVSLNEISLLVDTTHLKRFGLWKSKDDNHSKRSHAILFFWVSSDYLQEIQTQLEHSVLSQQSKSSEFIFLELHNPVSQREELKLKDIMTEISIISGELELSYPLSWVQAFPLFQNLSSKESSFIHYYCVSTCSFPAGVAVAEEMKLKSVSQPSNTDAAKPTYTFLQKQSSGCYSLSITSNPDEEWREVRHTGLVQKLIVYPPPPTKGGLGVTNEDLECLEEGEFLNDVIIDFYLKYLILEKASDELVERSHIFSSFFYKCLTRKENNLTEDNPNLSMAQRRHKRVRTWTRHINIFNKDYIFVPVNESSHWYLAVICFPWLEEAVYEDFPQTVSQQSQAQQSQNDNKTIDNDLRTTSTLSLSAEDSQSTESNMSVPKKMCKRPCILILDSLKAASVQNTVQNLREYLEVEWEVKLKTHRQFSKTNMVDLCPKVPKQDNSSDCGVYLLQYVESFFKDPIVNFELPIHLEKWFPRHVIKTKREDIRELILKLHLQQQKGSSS

[10] = target: T6, Sentrin-specific protease 6 (Homo sapiens, UniProt Q9GZR1); assay: SAR Analysis of small molecule inhibitors of Sentrin-specific protease 6 (SENP6) using a Luminescent assay. [Related pubchem assays (depositor defined):AID2582, AID2599]; assay type: functional
T6 sequence (Q9GZR1 whole entry): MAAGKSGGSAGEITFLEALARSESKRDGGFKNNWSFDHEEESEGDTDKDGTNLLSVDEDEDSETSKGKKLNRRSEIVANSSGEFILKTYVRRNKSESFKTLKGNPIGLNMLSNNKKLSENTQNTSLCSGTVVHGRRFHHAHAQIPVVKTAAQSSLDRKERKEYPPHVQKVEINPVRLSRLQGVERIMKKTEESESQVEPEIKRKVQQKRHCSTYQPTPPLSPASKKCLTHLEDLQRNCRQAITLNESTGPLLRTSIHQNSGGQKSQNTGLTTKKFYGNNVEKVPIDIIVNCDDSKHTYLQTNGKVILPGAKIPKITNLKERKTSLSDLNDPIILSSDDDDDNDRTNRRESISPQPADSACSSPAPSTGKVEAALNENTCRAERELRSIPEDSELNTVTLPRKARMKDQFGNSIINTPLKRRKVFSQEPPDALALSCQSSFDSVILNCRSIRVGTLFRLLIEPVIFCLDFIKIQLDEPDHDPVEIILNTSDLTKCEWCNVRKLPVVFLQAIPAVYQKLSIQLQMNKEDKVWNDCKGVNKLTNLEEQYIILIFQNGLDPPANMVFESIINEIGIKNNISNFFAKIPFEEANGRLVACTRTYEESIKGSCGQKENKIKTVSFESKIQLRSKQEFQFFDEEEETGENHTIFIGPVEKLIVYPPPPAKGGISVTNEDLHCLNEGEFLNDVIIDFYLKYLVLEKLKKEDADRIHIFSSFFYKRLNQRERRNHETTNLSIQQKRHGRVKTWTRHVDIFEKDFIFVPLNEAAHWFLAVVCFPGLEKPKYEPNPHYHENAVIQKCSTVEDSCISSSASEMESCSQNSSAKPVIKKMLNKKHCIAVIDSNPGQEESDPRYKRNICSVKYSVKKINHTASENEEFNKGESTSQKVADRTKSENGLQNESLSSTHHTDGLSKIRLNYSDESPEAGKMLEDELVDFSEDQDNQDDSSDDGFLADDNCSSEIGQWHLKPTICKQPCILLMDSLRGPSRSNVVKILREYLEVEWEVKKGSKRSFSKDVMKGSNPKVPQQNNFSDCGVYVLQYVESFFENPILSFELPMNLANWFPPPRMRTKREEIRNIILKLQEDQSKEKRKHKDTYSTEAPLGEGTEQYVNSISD

Caspase-3 = target: T7, Caspase-3 (Homo sapiens, UniProt P42574); assay: SAR Analysis of small molecule inhibitors of Sentrin-specific proteases (SENPs) using a Caspase-3 Selectivity assay. [Related pubchem assays (depositor defined):AID2540, AID2599, AID434973, AID489001]; assay type: functional
T7 sequence (P42574 whole entry): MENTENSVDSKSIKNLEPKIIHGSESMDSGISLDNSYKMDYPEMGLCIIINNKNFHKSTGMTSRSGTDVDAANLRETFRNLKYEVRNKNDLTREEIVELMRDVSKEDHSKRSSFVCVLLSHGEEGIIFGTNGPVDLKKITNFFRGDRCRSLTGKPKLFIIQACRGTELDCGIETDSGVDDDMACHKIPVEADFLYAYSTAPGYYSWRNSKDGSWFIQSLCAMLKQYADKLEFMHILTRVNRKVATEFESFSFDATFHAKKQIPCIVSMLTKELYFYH

[11] = target: Melanin-concentrating hormone receptor 1 (Homo sapiens, UniProt Q99705); assay: Late-stage fluorescence-based counterscreen for antagonists of the G-protein coupled receptor 7 (GPR7): cell-based dose response assay to identify antagonists of the melanin-concentrating hormone receptor 1 (MCHR1) Set 5.; assay type: functional
Sequence of Melanin-concentrating hormone receptor 1 (Q99705 whole entry): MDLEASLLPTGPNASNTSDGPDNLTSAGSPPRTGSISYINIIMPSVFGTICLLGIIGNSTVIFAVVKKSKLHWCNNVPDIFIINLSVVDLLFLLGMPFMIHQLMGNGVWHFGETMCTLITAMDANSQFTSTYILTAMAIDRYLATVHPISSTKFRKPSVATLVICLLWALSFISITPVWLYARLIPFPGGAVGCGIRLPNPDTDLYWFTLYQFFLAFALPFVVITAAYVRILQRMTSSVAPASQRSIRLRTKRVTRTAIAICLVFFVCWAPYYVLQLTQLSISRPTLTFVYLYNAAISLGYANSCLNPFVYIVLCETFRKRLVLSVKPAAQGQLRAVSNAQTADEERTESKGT

Sequence of Serine/threonine-protein phosphatase PP1-alpha catalytic subunit (P62136 whole entry): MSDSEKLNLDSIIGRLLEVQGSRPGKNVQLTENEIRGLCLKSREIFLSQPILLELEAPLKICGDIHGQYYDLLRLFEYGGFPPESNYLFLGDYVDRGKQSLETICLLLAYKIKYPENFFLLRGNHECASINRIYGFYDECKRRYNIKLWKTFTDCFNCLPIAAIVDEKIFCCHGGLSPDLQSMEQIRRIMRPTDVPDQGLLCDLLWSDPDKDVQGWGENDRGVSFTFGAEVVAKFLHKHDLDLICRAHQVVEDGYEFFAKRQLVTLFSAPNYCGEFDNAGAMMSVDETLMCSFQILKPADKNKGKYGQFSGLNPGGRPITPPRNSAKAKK
Sequence of Serine/threonine-protein phosphatase (Q9BPW0 whole entry): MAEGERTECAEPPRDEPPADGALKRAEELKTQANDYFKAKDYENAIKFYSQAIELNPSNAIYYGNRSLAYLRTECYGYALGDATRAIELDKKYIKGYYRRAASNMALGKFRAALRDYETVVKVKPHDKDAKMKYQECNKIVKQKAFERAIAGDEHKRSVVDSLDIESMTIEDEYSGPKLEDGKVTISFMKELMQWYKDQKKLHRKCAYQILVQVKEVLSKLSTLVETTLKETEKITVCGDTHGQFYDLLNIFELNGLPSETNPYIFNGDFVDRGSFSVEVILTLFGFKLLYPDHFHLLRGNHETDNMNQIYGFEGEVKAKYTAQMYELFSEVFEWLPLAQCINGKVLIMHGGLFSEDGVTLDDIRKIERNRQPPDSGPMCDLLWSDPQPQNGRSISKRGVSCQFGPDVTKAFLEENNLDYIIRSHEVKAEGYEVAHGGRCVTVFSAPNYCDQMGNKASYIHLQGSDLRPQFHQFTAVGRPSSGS

With `O=C1c2ccccc2C(Nc2ccc3[nH]c(-c4cccnc4)nc3c2)N1Cc1ccco1` (stereo not drawn) the EC50 (HEK293 [1]) was > 55.9 µM (inactive), the IC50 (HEK293 [2]) was > 89.1 µM (inactive) and the EC50 (Insulin-degrading enzyme [3]) was > 54.6 µM (inactive). For the same compound, the EC50 (Insulin-degrading enzyme [4]) was > 54.6 µM (inactive).

`COC(=O)CCC(=O)OC1(C)C(=O)C=C2C=C(C3CC3)N(CCCCO)C=C2C1=O` (stereo not drawn) was tested, and the IC50 [5] was 57.6 µM (not active), the IC50 [6] was 19.4 µM (active) and the AC50 (Caspase-6) was 8.77 µM (active). For the same compound, the IC50 [7] was 11.8 µM (not active).

In the case of `Fc1ccc(N/N=C/c2cn(Cc3ccccc3)c3ccccc23)cc1`, the IC50 [8] is reported as > 99 µM (inactive), the IC50 [9] is reported as > 99 µM (inactive) and the IC50 [10] is reported as > 99 µM (inactive). The IC50 (Caspase-3) was > 99 µM (inactive).

`COc1ccc(Oc2c(Cl)cnn(Cc3ccccc3C(C)C)c2=O)cc1` was tested, and the IC50 [11] was 1.95 µM (active).
